Results on 11 compounds are retold here after patent US5677349A, “Agmatine for the treatment of neurotrauma and neurodegenerative diseases” (priority 1995, dated 1997).

Counter-ions that a name gives are not always drawn. Like-named read-outs stand apart in the source and are kept apart here.

The test system of data set [1] is pyramidal neurons of the CA1 layer of the anterior hippocampus. The data set is described as follows: animal or person. The class given is in vivo. On the procedure: Male mongolian gerbils, aged 2.5-5 months, housed 4-8 in a cage, are supplied freely with food and water and maintained at 24° C. with a 12 hour day/night cycle. For surgery, the animals are anesthetized with halothane (1.5% in 100% O2) and the common carotid arteries exposed bilaterally through a midline ventral neck incision. Each artery is clamped for 5 minutes with aneurysm clips to produce global brain ischemia. The anesthesia is discontinued upon clamping. After 5 minutes the clamps are removed and the wound closed with skin clips
For treatment, the test compound or saline (0.9% NaCl, vehicle) are injected intraperitoneally (ip) in a volume of 50 microliters of solvent per 10 g body weight. The first injection is given 5 minutes after clamp removal, and thereafter daily for the next 2 post-operative days (total of 3 injections).
Four general groups, each of 4-8 animals were compare:
1. Control (sham, or unoperated and vehicle treated);
2. Ischemia, untreated or vehicle treated;
3. Ischemia, test compound treated, one sub-group per concentration tested;
4. Ischemia and pentobarbital (40 mg/kg) as positive control.
Analysis of neuronal damage was performed 14 days post-ischemia by counting pyramidal neurons throughout the CA1 layer of the anterior hippocampus in 4 micrometer thick (paraffin) coronal brain sections, stained with hematoxylin eosin. Values of cell numbers in the hippocampi of individual gerbils were expressed as percent of intact controls (control cell counts were 275±25 cells/mm^2).
Percent Protection values represent the fraction of hippocampi protected from ischemia in a group of animals treated with the stated dose of compound.

Data set [2] in a line: Effect on nerve cell survival and toxicity in culture (dissociated neonatal rat cerebellum). The class given is cell-based. As to conditions: rat, cerebellar nerve cells. On the procedure: (§1) A concentration-dependent (dose-response) effect on nerve cell survival was determined for each compound at a concentration range of 0.001-5000 micromolar (μM). The compounds were added to 3-day-old cultures and the effect was examined 24 hours later.
(§2) Nerve cell survival was evaluated by phase contrast microscopy and trypan blue exclusion staining.
(§3) The results, summarized in Table 1, show the compound concentrations at which 20% or more cells survived (Survival) relative to controls, and at which 50% of the cells died (TD50) when compared to controls. Control cultures were grown in enriched medium alone and represent 100% values.

The subject of data set [3] is nerve cell survival after NMDA neurotoxic challenge. The data set is described as follows: Reversal of N-methyl-D-aspartate induced cell death in culture. As to conditions: for Percent Protection: after NMDA, survival minus NMDA effect. On the procedure:
The cerebellum is aseptically dissociated from 6 or 7-day old rat pups and placed in a 15 ml sterile plastic conical tube containing 3 ml of Dulbecco's modified Eagle's medium containing high glucose concentration ([…]), 2 Mm (v/v) L-glutamine and an antibiotic mixture. The cerebella are then dissociated after 20-25 passages through a sterile 13 gauge, 10 cm long stainless steel needle attached to a 5 ml syringe with an inserted 45 micrometer pore nylon sieve. The dissociated cells are centrifuged at 200 g for 5 minutes. The supernatant is discarded and the cells resuspended in medium enriched with 15% (v/v) heat inactivated fetal calf serum. Cell viability is determined by the trypan blue exclusion test.
Cells are plated at a density of 200/mm^2 on poly-L-lysine coated surfaces which are prepared at least one hour in advance of plating by covering the surfaces (plastic Petri dishes or glass coverslips) with sterile distilled water solution containing 15 micrograms/ml poly-L-lysine, and washing in sterile water just prior to use. The plated cells are covered with enriched medium and incubated at 37° C. in an atmosphere of 5% CO2 in air and 97% humidity. After three days in culture, the media is replaced with media containing the desired compound. Each compound is tested in duplicate and each experiment repeated at least once.
Four groups were run in each set of experiments:
1. Control, consisting of cells grown in enriched media alone;
2. N-methyl-D-aspartate (NMDA, 1 Mm for 3 hours) as the cytotoxic challenge;
3. Test compound added after the NMDA challenge;
4. Positive control, spermine or spermidine (0.01 μM) after NMDA.
The number of surviving cells was examined 24 hours after the challenge. Surviving cells in culture are measured relative to control (100%) as described above. Percent Protection is the cell survival for the test compound minus the NMDA effect. […] The Effective Protection value was calculated as the percent of the Percent Protection (X) divide by the maximal protection value (e.g. X×100/70).

The subject of data set [4] is ischemia-induced nerve cell death. The settings on record: gerbils; Gilad et al. 1989, 1991, 1992; cited from earlier work.
For data set [5] the following is noted: animals; background; cited from earlier work.
Data set [6] deals with intracellular imidazoline receptors. As to conditions: background; cited from earlier work.
For data set [7], the system named is ADP-ribosylation of proteins. The settings on record: acts as ADP-ribose acceptor; background; cited from earlier work.
In the next data set the test system is NMDA receptors. The settings on record: background; cited from earlier work.
In a further data set the test system is cell proliferation. Put plainly: Toxicity and cell proliferation, general statement. The class given is cell-based.
The subject of the next data set is nicotine receptors. As to conditions: background; cited from earlier work.
A further data set concerns nerve cell survival. The data set is described as follows: Effect on nerve cell survival and toxicity in culture (dissociated neonatal rat cerebellum). The data set is classed as cell-based. The settings on record: 24 hours. On the procedure:
as §1, §2, §3

Setting [8] is: TD50 (concentration at which 50% of the cells died).
[9] abbreviates: Rattus norvegicus, 24 h, read-out: Effective Protection.
Setting [10] is: Rattus norvegicus, 24 h, read-out: Surviving Cells in Culture.
[11] abbreviates: Meriones unguiculatus, Pyramidal neuron, ip, 336 h, read-out: Percent Protection.
The mark [12] stands for this setting: 24 hours, 3-day-old cultures, read-out: TD50 (concentration at which 50% of the cells died).

With `CCCC(C)C1(CC)C(=O)NC(=O)NC1=O` (centres unmarked) [Pentobarbital, pentobarbital], the responders at 40 mg/kg in [1] (Meriones unguiculatus, Pyramidal neuron, 336 h, read-out: Percent Protection) was found to be 87%.
For `CNC1(C)C2CCC(C2)C1(C)C` (centres unmarked) [Mecamylamine], the CC50 at 24 h in data set [2] (setting [8]) was 500 µM. In data set [3] (25 μM), the “Percent Protection” value is reported as 37%. The inhibition at 25 µM in [3] (setting [9]) was 53%. Besides, the viability at 25 µM in data set [3] (setting [10]) is 67%. Also, in [1] (setting [11]), the responders at 10 mg/kg stood at 40%.
With `NCCCNCCCCNCCCN1c2ccccc2Sc2ccc(Cl)cc21` [G103, 2-chloro-N-[3-(8-spermidinyl)]-10H-Phenothiazine-10-propanamine.3 HCl], the CC50 at 24 h in [2] (setting [12]) is 2 µM. In addition, in [3] (0.01 μM), the “Percent Protection” value is reported as 25%. In addition, the “Percent Protection” value in data set [3] (0.10 μM) is reported as 2%. For the same compound, in data set [3] (1 μM), the “Percent Protection” value is -10%. Further, in data set [3] (setting [9]), the inhibition at 0.01 µM was found to be 36% and the inhibition at 0.1 µM was 3%. Moreover, in data set [3] (setting [10]), the viability at 0.01 µM was 55%, the viability at 0.1 µM worked out at 32% and the viability at 1 µM is 20%. In data set [1] (0.50 mg/kg ip, ischemic gerbils, n=5), the lethality entry was “lethal”. For the same compound, in data set [1] (setting [11]), the responders at 0.01 mg/kg worked out at 42% and the responders at 0.1 mg/kg was determined as 55%.
`NCCCCN` [Putrescine]: the CC50 at 24 h in data set [2] (setting [8]) was determined as 300 µM. In addition, in data set [4], the “Effect against ischemia-induced nerve cell death” value is recorded as “protecting against ischemia-induced nerve cell death in gerbils”. Further, the “Percent Protection” value in data set [3] (0.005 μM) was found to be 2%. Further, in data set [3] (0.01 μM), the “Percent Protection” value was 0%. In data set [3] (setting [9]), the inhibition at 0.005 µM came out at 3% and the inhibition at 0.01 µM came out at 0%. Moreover, in [3] (setting [10]), the viability at 0.005 µM was determined as 32% and the viability at 0.01 µM is 30%. Moreover, in [1] (setting [11]), the responders at 10 mg/kg stood at 35%.
With `C1CN2CCC1CC2` [Quinuclidine], in data set [2] (setting [12]), the CC50 at 24 h was determined as 100 µM. In addition, in data set [3] (1 μM), the “Percent Protection” value amounted to 5%. Further, the “Percent Protection” value in data set [3] (10 μM) stood at 10%. For the same compound, in [3] (setting [9]), the inhibition at 1 µM was 7% and the inhibition at 10 µM was found to be 14%. In data set [3] (setting [10]), the viability at 1 µM stood at 35% and the viability at 10 µM amounted to 40%. Also, the responders at 10 mg/kg in data set [1] (setting [11]) came out at 15%.
For the compound `NCCCCNCCCN` [Spermidine], in data set [2] (setting [12]), the CC50 at 24 h is 2 µM. For the same compound, the “Effect against ischemia-induced nerve cell death” value in [4] is on record as “protecting against ischemia-induced nerve cell death in gerbils”. In addition, in data set [3] (0.005 μM), the “Percent Protection” value was 0%. Besides, the “Percent Protection” value in data set [3] (0.01 μM) worked out at 48%. Besides, in data set [3] (setting [9]), the inhibition at 0.005 µM stood at 0% and the inhibition at 0.01 µM stood at 69%. Also, in [3] (setting [10]), the viability at 0.005 µM was 30% and the viability at 0.01 µM is 78%. The responders at 10 mg/kg in [1] (setting [11]) was found to be 50%.
For the compound `NCCCNCCCCNCCCN` [Spermine], the CC50 at 24 h in [2] came to 2 µM. Moreover, in data set [4], the “Effect against ischemia-induced nerve cell death” value is given as “protecting against ischemia-induced nerve cell death in gerbils”. Further, the figures for the “Percent Protection” value in data set [3] (0.005 μM) and in [3] (0.01 μM) were -5% and 38%, respectively. The inhibition at 0.01 µM in [3] (setting [9]) is 54%. Also, the viability at 0.005 µM in data set [3] (setting [10]) worked out at 25%. In [3] (setting [10]), the viability at 0.01 µM is 68%. Besides, the responders at 10 mg/kg in [1] (setting [11]) came to 65%.
Take `N=C(N)NCCCCN` [Agmatine, agmatine]: the Insulin-like effects entry in data set [5] is on record as “produces insulin-like effects in animals”. Also, the CC50 at 24 h in [2] (setting [12]) came out at 500 µM. Also, the “Interaction with intracellular imidazoline receptors” value in data set [6] is “interaction with membrane receptors”. Besides, the “Percent Protection” value in data set [3] (10 μM) turned out to be 35%. Moreover, the “Percent Protection” value in [3] (50 μM) is 51%. In [3] (setting [9]), the inhibition at 10 µM was determined as 50% and the inhibition at 50 µM is 73%. Besides, in data set [3] (setting [10]), the viability at 10 µM stood at 65% and the viability at 50 µM worked out at 81%. Moreover, the “Effect on ADP-ribosylation of proteins” value in data set [7] was “inhibit ADP-ribosylation of proteins”. Moreover, the “Interaction with NMDA receptors” value with NMDA receptors is recorded as “interaction with membrane receptors”. For the same compound, in [1] (setting [11]), the responders at 10 mg/kg worked out at 20%, the responders at 50 mg/kg is 50% and the responders at 100 mg/kg amounted to 75%. Further, the Toxicity entry in the data set on cell proliferation is listed as “relatively non-toxic”. The Cell proliferation result in the data set on cell proliferation (at some concentrations) is on record as “accelerates cell proliferation”. The “Interaction with nicotine receptors” value with nicotine receptors was “interaction with membrane receptors”.
As to `C1C2CC3CC1CC(C2)C3` [Adamantane], in data set [2] (setting [8]), the CC50 at 24 h is 1000 µM. In addition, the “Percent Protection” value in data set [3] (10 μM) was found to be 13%. Moreover, the “Percent Protection” value in data set [3] (50 μM) was 20%. In data set [3] (setting [9]), the inhibition at 10 µM was 19% and the inhibition at 50 µM was determined as 29%. Moreover, in data set [3] (setting [10]), the viability at 10 µM was found to be 43% and the viability at 50 µM was found to be 50%. Moreover, the responders at 50 mg/kg in [1] (setting [11]) is 23%.
`Clc1ccc2c(c1)Nc1ccccc1S2` [2-Cl-phenothiazine] registered a CC50 at 24 h in data set [2] (setting [8]) of 5 µM. Also, the “Percent Protection” value in data set [3] (10 μM) is given as 15%. Also, the “Percent Protection” value in [3] (50 μM) was determined as 32%. In addition, in [3] (setting [9]), the inhibition at 10 µM was found to be 21% and the inhibition at 50 µM was 46%. For the same compound, in [3] (setting [10]), the viability at 10 µM worked out at 45% and the viability at 50 µM came to 62%. The responders at 10 mg/kg in data set [1] (setting [11]) was determined as 65%.
As to `Cl.Cl.NCCCCNCCCN1c2ccccc2Sc2ccc(Cl)cc21` [G102, 2-chloro-N-(4-aminobutyl)-10H-Phenothiazine-10-propanamine-2HCl], the “Shape of dose-response curve for nerve cell survival” value with nerve cell survival is on record as “U-shaped dose-response curve”. In data set [3] (1 μM), the “Percent Protection” value was 40%. Further, the “Percent Protection” value in data set [3] (50 μM) is 5%. Also, the “Percent Protection” value in [3] (250 μM) is recorded as 65%. Moreover, in [3] (setting [9]), the inhibition at 1 µM is 57%, the inhibition at 50 µM amounted to 7% and the inhibition at 250 µM turned out to be 93%. Moreover, in [3] (setting [10]), the viability at 1 µM worked out at 70%, the viability at 50 µM worked out at 35% and the viability at 250 µM was determined as 95%. The same compound came in with a toxic in data set [1] (10 mg/kg ip, ischemic gerbils, n=10) of 70%. In addition, in data set [1] (setting [11]), the responders at 1 mg/kg came out at 40% and the responders at 5 mg/kg stood at 70%.
